From patent US6376485B1, “Benzoxazoles with PDE-inhibiting activity” (Byk Gulden Lomberg Chemische Fabrik GmbH, priority 1998, dated 2002)

How the values were obtained:
[1] = test system: PDE4; assay: Inhibition of PDE4 activity (method of Bauer and Schwabe, adapted to microtiter plates); type: biochemical; conditions: inhibitory concentration as -log IC50 (mol/l)
Protocol: The activity test was carried out according to the method of Bauer and Schwabe, which was adapted to microtiter plates (Naunyn-Schmiedeberg's Arch. Pharmacol. 1980, 311, 193-198). In this test, the PDE reaction takes place in the first step. In a second step, the resulting 5′-nucleotide is cleaved by a 5′-nucleotidase of the snake venom from Crotalus atrox to give the uncharged nucleoside. In the third step, the nucleoside is separated from the remaining charged substrate on ion-exchange columns. The columns are eluted directly into minivials to which 2 ml of scintillator fluid is additionally added for counting […].
The inhibitory values determined for the compounds according to the invention [inhibitory concentration as -log IC50 (mol/l)] results from the following Table A, in which the numbers of the compounds correspond to the numbers of the examples.

Row | Compound | melting point | Inhibition of the PDE4 activity, -log IC50 [1]
1 | COc1ccc(C2(C#N)CCOCC2)c2nc(C(C)C)oc12 [Compound 2, 4a-Cyano-4e-(2-isopropyl-7-methoxybenzoxazol-4-yl)-tetrahydropyran] | 156.5 °C | 7.86 mol/l
2 | COc1ccc(C2(C#N)CCC(O)CC2)c2nc(C(C)C)oc12 (stereo not drawn) [Compound 4, cis-4-Cyano-4-(2-isopropyl-7-methoxybenzoxazol-4-yl)cyclohexan-1-ol] | 116.5 °C | 7.77 mol/l
3 | COc1ccc(C2(C#N)CCC(=O)CC2)c2nc(C(C)C)oc12 [Compound 3, 4-Cyano-4-(2-isopropyl-7-methoxybenzoxazol-4-yl)cyclohexanone] | 118 °C | 6.96 mol/l
4 | COc1ccc(C2(C#N)CCOCC2)c2nc(C)oc12 [Compound 1, 4a-Cyano-4e-(2-methyl-7-methoxybenzoxazol-4-yl)tetrahydropyran] | 72 °C | 6.87 mol/l

Now from value to compound, other results behind:

Row | melting point | Compound | Inhibition of the PDE4 activity, -log IC50 [1]
5 | 217.5 °C | COc1ccc(C2(C#N)CCC(C(=O)O)CC2)c2nc(C(C)C)oc12 (stereo not drawn) [Compound 6, cis-4-Cyano-4-(2-isopropyl-7-methoxybenzoxazol-4-yl)cyclohexane-1-carboxylic acid] | 7.69 mol/l
6 | 228 °C | COc1ccc(C2(C#N)CCC(C(N)=O)CC2)c2nc(C(C)C)oc12 (stereo not drawn) [Compound 7, Cis-4-Cyano-4-(2-isopropyl-7-methoxybenzoxazol-4-yl)cyclohexane-1-carboxamide] | 7.65 mol/l
7 | 83 °C | COC(=O)C1CCC(C#N)(c2ccc(OC)c3oc(C(C)C)nc23)CC1 (stereo not drawn) [Compound 5, Methyl cis-4-cyano-(2-isopropyl-7-methoxybenzoxazol-4-yl)cyclohexane-1-carboxylate] | 6.46 mol/l
